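Protocol summary: plate cells (96-well), add compound at 5 concentrations, incubate 48 h, interpolate endpoints linearly. TGI is the concentration that stops growth completely.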
Columns and labels:
Test in all cases: NCI anticancer screen, dose series, 48 h
[1] = test system: SF-268 CNS
[2] = test system: TK-10 renal
[3] = test system: SW-620 colon
[4] = test system: M14 melanoma
[5] = test system: SNB-75 CNS
[6] = test system: CCRF-CEM leukemia
[7] = test system: DLD-1 colon
[8] = test system: UACC-62 melanoma
[9] = test system: 786-0 renal
[10] = test system: HOP-62 NSCLC
[11] = test system: SK-MEL-28 melanoma
[12] = test system: NCI-H460 lung
[13] = test system: XF 498 CNS
[14] = test system: OVCAR-5 ovarian
[15] = test system: HOP-18 NSCLC
[16] = test system: HL-60(TB) leukemia
[17] = test system: MALME-3M melanoma
[18] = test system: RXF 393 renal
[19] = test system: OVCAR-4 ovarian
[20] = test system: OVCAR-3 ovarian
[21] = test system: SN12C renal
[22] = test system: MOLT-4 leukemia
[23] = test system: U251 CNS
[24] = test system: IGROV1 ovarian
[25] = test system: SF-539 CNS
[26] = test system: NCI-H522 lung
[27] = test system: SNB-19 CNS
[28] = test system: NCI-H23 lung
[29] = test system: SF-295 CNS
[30] = test system: HOP-92 NSCLC
[31] = test system: LXFL 529 NSCLC
[32] = test system: SR leukemia
[33] = test system: SNB-78 CNS
[34] = test system: COLO 205 colon
[35] = test system: OVCAR-8 ovarian
[36] = test system: DMS 114 small cell lung
[37] = test system: ACHN renal
[38] = test system: RXF-631 renal
[39] = test system: KM12 colon
[40] = test system: UACC-257 melanoma
[41] = test system: M19-MEL melanoma
[42] = test system: UO-31 renal
[43] = test system: K-562 leukemia
[44] = test system: HCT-116 colon
[45] = test system: HCC-2998 colon
[46] = test system: HT29 colon
[47] = test system: CAKI-1 renal
[48] = test system: SK-MEL-5 melanoma
[49] = test system: A549 NSCLC
[50] = test system: LOX IMVI melanoma
[51] = test system: EKVX NSCLC
[52] = test system: NCI-H226 lung
[53] = test system: RPMI-8226 leukemia
[54] = test system: DMS 273 small cell lung
[55] = test system: SK-OV-3 ovarian
[56] = test system: SK-MEL-2 melanoma
[57] = test system: A498 renal
[58] = test system: HCT-15 colon
[59] = test system: KM20L2 colon

CC(=O)c1c2c(cc3c1CC1(C3)Cc3cc4c(c(C(C)=O)c3C1)CCC4)CCC2
TGI [1]: > 100 µM | TGI [2]: > 100 µM | TGI [3]: > 100 µM | TGI [4]: > 100 µM | TGI [5]: > 100 µM | TGI [6]: > 100 µM | TGI [7]: > 100 µM | TGI [8]: > 100 µM | TGI [9]: > 100 µM | TGI [10]: > 100 µM | TGI [11]: > 100 µM | TGI [12]: > 100 µM | TGI [13]: > 100 µM | TGI [14]: > 100 µM | TGI [15]: > 100 µM | TGI [16]: > 100 µM | TGI [17]: > 100 µM | TGI [18]: > 100 µM | TGI [19]: > 100 µM | TGI [20]: > 100 µM | TGI [21]: > 100 µM | TGI [22]: > 100 µM | TGI [23]: > 100 µM | TGI [24]: > 100 µM | TGI [25]: > 100 µM | TGI [26]: > 100 µM | TGI [27]: > 100 µM | TGI [28]: > 100 µM | TGI [29]: > 100 µM | TGI [30]: > 100 µM | TGI [31]: > 100 µM | TGI [32]: > 100 µM | TGI [33]: > 100 µM | TGI [34]: > 100 µM | TGI [35]: > 100 µM | TGI [36]: > 100 µM | TGI [37]: > 100 µM | TGI [38]: > 100 µM | TGI [39]: > 100 µM | TGI [40]: > 100 µM | TGI [41]: > 100 µM | TGI [42]: > 100 µM | TGI [43]: > 100 µM | TGI [44]: > 100 µM | TGI [45]: > 100 µM | TGI [46]: > 100 µM | TGI [47]: > 100 µM | TGI [48]: > 100 µM | TGI [49]: > 100 µM | TGI [50]: > 100 µM

COC(=O)C1Cc2c(n(C)c3ccccc23)C(CCC(=O)O)N1Cc1ccccc1 (configuration not stated)
TGI [1]: 69.9 µM | TGI [2]: > 100 µM | TGI [3]: > 100 µM | TGI [4]: 62.2 µM | TGI [5]: 89.7 µM | TGI [6]: > 100 µM | TGI [7]: > 100 µM | TGI [8]: 77.1 µM | TGI [9]: > 100 µM | TGI [10]: > 100 µM | TGI [11]: 58.2 µM | TGI [51]: > 100 µM | TGI [12]: 80.7 µM | TGI [13]: 72.5 µM | TGI [52]: 75.2 µM | TGI [14]: > 100 µM | TGI [16]: > 100 µM | TGI [53]: 75.2 µM | TGI [17]: > 100 µM | TGI [18]: 89.7 µM | TGI [19]: > 100 µM | TGI [20]: 53.4 µM | TGI [21]: > 100 µM | TGI [22]: > 100 µM | TGI [54]: > 100 µM | TGI [23]: > 100 µM | TGI [24]: > 100 µM | TGI [25]: 58 µM | TGI [26]: 91.2 µM | TGI [27]: 97.3 µM | TGI [55]: > 100 µM | TGI [28]: 80.7 µM | TGI [29]: 93.9 µM | TGI [30]: 60.2 µM | TGI [31]: > 100 µM | TGI [33]: > 100 µM | TGI [34]: 71.9 µM | TGI [35]: > 100 µM | TGI [36]: 93.2 µM | TGI [37]: 81.8 µM | TGI [38]: > 100 µM | TGI [39]: 81.4 µM | TGI [40]: > 100 µM | TGI [41]: > 100 µM | TGI [42]: 51.4 µM | TGI [56]: > 100 µM | TGI [43]: > 100 µM | TGI [44]: 43.2 µM | TGI [45]: > 100 µM | TGI [46]: > 100 µM | TGI [47]: > 100 µM | TGI [57]: 76.5 µM | TGI [48]: 79.5 µM | TGI [58]: > 100 µM | TGI [59]: > 100 µM | TGI [49]: > 100 µM | TGI [50]: > 100 µM

Source: PubChem BioAssay (NCI)
